Laboratory results published in patent publication US20260083131A1, “AN HERBICIDAL COMBINATION, COMPOSITION AND METHOD OF CONTROLLING WEEDS USING THE SAME” (priority 2022, published 2026).

Tests used:
[1] = system: Viola arvensis, Bromus spp., Lolium spp., Agropyron repens and Urtica urens; details: reported by Hoechst et al., 1991; cited from earlier work
Borreria verticillata = assay: Greenhouse trial, post-emergence herbicidal activity on Borreria verticillata; type: in vivo
Experimental: (§1) The expected efficacy of a combination of L-glufosinate ammonium and the other herbicides was calculated using the well-established Colby method. Any difference between the observed and “expected” efficacy could be attributed to synergy between the two compounds.
(§2) In the Colby method, the expected (or predicted) response of a combination of herbicides is calculated by taking the product of the observed response for each individual component of the combination when applied alone, divided by 100, and subtracting this value from the sum of the observed response for each component when applied alone. An unexpected enhancement in efficacy of the combination is then determined by comparing the observed response of the combination to the expected (or predicted) response as calculated from the observed response of each individual component alone. If the observed response of the combination is greater than the expected (or predicted) response, or stated conversely, if the difference between the observed and expected response is greater than zero, then the combination is said to be synergistic or unexpectedly effective (Colby, S. R., Weeds, 1967(15), p. 20-22). The Colby method requires only a single dose of each herbicide applied alone and the mixture of both doses. The formula used to calculate the expected efficacy (EE) which was compared with the observed efficacy (OE) to determine the efficacy of the present disclosure is explained hereinbelow:
(§3) Methodology: Greenhouse trials were conducted to evaluate the efficacy of the combination comprising L-glufosinate ammonium and imidazolinone herbicides—imazethapyr, imazamox, imazapic and imazapic+imazapyr—on weeds Borreria verticilata, Eleusine indica, Brachiaria decumbens, Spermacoce latifolia and Glycine max.
(§4) The soil used was sandy clay loam—sand: 68.0%; silt: 8.0%; clay: 24.0%.
(§5) All treatments were in 3 replications per treatment with a spray volume of about 150 L/ha.
The percentage efficacy was calculated after 3, 7, 14, 21, 28 and 35 days of applications (DAA). The target weed was Borreria verticillata, and the concentration of the herbicide and the results are recorded in Table 1.
The percentage efficacy was calculated after 3 days of applications (DAA). The target weed was Borreria verticillata, and the concentration of the herbicide and the results are recorded in Table 2.
The percentage efficacy was calculated after 3, 7, 14, 21, 28 and 35 days of applications (DAA). The target weed was Borreria verticillata, and the concentration of the herbicide and the results are recorded Table 7.

[2] = system: weedy Brachiaria decumbens; assay: Greenhouse trial, post-emergence herbicidal activity on Brachiaria decumbens; type: in vivo; details: Table 3
Experimental: as §1, §2, §3, §4, §5
The percentage efficacy was calculated after 7, 14, 21, 28, 35 days of applications (DAA). The target weed was weedy Brachiaria decumbens, and the concentration of the herbicide and the results are recorded in Table 3.

weedy Eleusine indica = assay: Greenhouse trial, post-emergence herbicidal activity on Eleusine indica; type: in vivo; details: Table 4
Experimental: as §1, §2, §3, §4, §5
The percentage efficacy was calculated after 7, 14, 21, 28, 35 days of applications (DAA). The target weed was weedy Eleusine indica, and the concentration of the herbicide and the results are recorded in Table 4.

Spermacoce latifolia = assay: Greenhouse trial, post-emergence herbicidal activity on Spermacoce latifolia; type: in vivo; details: Table 5
Experimental: as §1, §2, §3, §4, §5
The percentage efficacy was calculated after 14, 21, 28, 35 days of applications (DAA). The target weed was Spermacoce latifolia, and the concentration of the herbicide and the results are recorded Table 5.

weedy Glycine max = assay: Greenhouse trial, post-emergence herbicidal activity on Glycine max; type: in vivo; details: Table 6
Experimental: as §1, §2, §3, §4, §5
The percentage efficacy was calculated after 14, 21, 28, 35 days of applications (DAA). The target weed was weedy Glycine max, and the concentration of the herbicide and the results are recorded in Table 6.

In the case of `CP(=O)(O)CCC(N)C(=O)O` (racemic) [glufosinate, DL-homoalanin-4-yl(methyl)phosphinic acid], the “control of weed species Viola arvensis, Bromus spp., Lolium spp., Agropyron repens and Urtica urens” value [1] is given as “either not combated, or only weakly combated”.
For `COCc1cnc(C2=NC(C)(C(C)C)C(=O)N2)c(C(=O)O)c1` (stereo not drawn) [Imazamox, imazamox], the “Observed efficacy (%) of Imazamox (21 g a.i./ha)” value (Borreria verticillata; 3 DAA, 21 g a.i./ha, Table 2) was 10%.
In the case of `Cc1cnc(C2=NC(=O)C(C)(C(C)C)N2)c(C(=O)O)c1` (stereo not drawn) [Imazapic, imazapic], the “Observed efficacy (%) of Imazapic (59 g a.i./ha)” value (shortened to “Observed efficacy (%) of Imazapic”) (Borreria verticillata; 3 DAA, Table 1) is reported as 10%, the “Observed efficacy (%) of Imazapic” value (Borreria verticillata; 7 DAA, Table 1) is reported as 20% and the “Observed efficacy (%) of Imazapic” value (Borreria verticillata; 14 DAA, Table 1) is reported as 35%. The “Observed efficacy (%) of Imazapic” value (Borreria verticillata; 21 DAA, Table 1) was 30%, the “Observed efficacy (%) of Imazapic” value (Borreria verticillata; 28 DAA, Table 1) was 40% and the “Observed efficacy (%) of Imazapic” value (Borreria verticillata; 35 DAA, Table 1) was 60%.
In the case of `CCc1cnc(C2=NC(C)(C(C)C)C(=O)N2)c(C(=O)O)c1` (stereo not drawn) [Imazethapyr, imazethapyr], the “Observed efficacy (%) of Imazethapyr, (75 g a.i./ha)” value (“Observed efficacy (%) of Imazethapyr” for short) ([2]; 7 DAA) is reported as 10%, the “Observed efficacy (%) of Imazethapyr” value ([2]; 14 DAA) is reported as 10% and the “Observed efficacy (%) of Imazethapyr” value ([2]; 21 DAA) is reported as 15%. For the same compound, the “Observed efficacy (%) of Imazethapyr” value ([2]; 28 DAA) was 10%, the “Observed efficacy (%) of Imazethapyr” value ([2]; 35 DAA) was 5% and the “Observed efficacy (%) of Imazethapyr” value (weedy Eleusine indica; 7 DAA) was 8.3%. For the same compound, the “Observed efficacy (%) of Imazethapyr” value (weedy Eleusine indica; 14 DAA) was 12%, the “Observed efficacy (%) of Imazethapyr” value (weedy Eleusine indica; 21 DAA) was 12.7% and the “Observed efficacy (%) of Imazethapyr” value (weedy Eleusine indica; 28 DAA) was 12.7%. For the same compound, the “Observed efficacy (%) of Imazethapyr” value (weedy Eleusine indica; 35 DAA) was 10%, the “Observed efficacy (%) of Imazethapyr” value (Spermacoce latifolia; 14 DAA) was 30% and the “Observed efficacy (%) of Imazethapyr” value (Spermacoce latifolia; 21 DAA) was 36.7%. The “Observed efficacy (%) of Imazethapyr” value (Spermacoce latifolia; 28 DAA) was 30%, the “Observed efficacy (%) of Imazethapyr” value (Spermacoce latifolia; 35 DAA) was 26.7% and the “Observed efficacy (%) of Imazethapyr” value (weedy Glycine max; 14 DAA) was 10%. The “Observed efficacy (%) of Imazethapyr” value (weedy Glycine max; 21 DAA) was 20%, the “Observed efficacy (%) of Imazethapyr” value (weedy Glycine max; 28 DAA) was 20% and the “Observed efficacy (%) of Imazethapyr” value (weedy Glycine max; 35 DAA) was 15%.
In the case of `CP(=O)(O)CC[C@H](N)C(=O)O.N` [L-glufosinate ammonium, ammonium (2S)-2-amino-4-(methylphosphinato)butyric acid], the “Observed efficacy (%) of L-glufosinate ammonium (Glufosinate-P-ammonium) (150 g a.i./ha)” value (Borreria verticillata; 3 DAA, Table 1) is reported as 50%, the “Observed efficacy (%) of L-glufosinate ammonium (Glufosinate-P-ammonium) (150 g a.i./ha)” value (Borreria verticillata; 3 DAA, Table 2) is reported as 55% and the “Observed efficacy (%) of L-glufosinate ammonium (Glufosinate-P-ammonium) (150 g a.i./ha)” value (Borreria verticillata; 3 DAA, Table 7) is reported as 50%. For the same compound, the “Observed efficacy (%) of L-glufosinate ammonium (Glufosinate-P-ammonium) (150 g a.i./ha)” value (Borreria verticillata; 7 DAA, Table 1) was 80%, the “Observed efficacy (%) of L-glufosinate ammonium (Glufosinate-P-ammonium) (150 g a.i./ha)” value (Borreria verticillata; 7 DAA, Table 7) was 80% and the “Observed efficacy (%) of L-glufosinate ammonium (Glufosinate-P-ammonium) (150 g a.i./ha)” value (Borreria verticillata; 14 DAA, Table 1) was 95%. For the same compound, the “Observed efficacy (%) of L-glufosinate ammonium (Glufosinate-P-ammonium) (150 g a.i./ha)” value (Borreria verticillata; 14 DAA, Table 7) was 95%, the “Observed efficacy (%) of L-glufosinate ammonium (Glufosinate-P-ammonium) (150 g a.i./ha)” value (Borreria verticillata; 21 DAA, Table 1) was 90% and the “Observed efficacy (%) of L-glufosinate ammonium (Glufosinate-P-ammonium) (150 g a.i./ha)” value (Borreria verticillata; 21 DAA, Table 7) was 90%. For the same compound, the “Observed efficacy (%) of L-glufosinate ammonium (Glufosinate-P-ammonium) (150 g a.i./ha)” value (Borreria verticillata; 28 DAA, Table 1) was 90%, the “Observed efficacy (%) of L-glufosinate ammonium (Glufosinate-P-ammonium) (150 g a.i./ha)” value (Borreria verticillata; 28 DAA, Table 7) was 90% and the “Observed efficacy (%) of L-glufosinate ammonium (Glufosinate-P-ammonium) (150 g a.i./ha)” value (Borreria verticillata; 35 DAA, Table 1) was 85%. The “Observed efficacy (%) of L-glufosinate ammonium (Glufosinate-P-ammonium) (150 g a.i./ha)” value (Borreria verticillata; 35 DAA, Table 7) was 85%, the “Observed efficacy (%) of L-glufosinate ammonium, (150 g a.i./ha)” value ([2]; 7 DAA) was 46% and the “Observed efficacy (%) of L-glufosinate ammonium, (150 g a.i./ha)” value ([2]; 14 DAA) was 54.3%. The “Observed efficacy (%) of L-glufosinate ammonium, (150 g a.i./ha)” value ([2]; 21 DAA) was 53.3%, the “Observed efficacy (%) of L-glufosinate ammonium, (150 g a.i./ha)” value ([2]; 28 DAA) was 48.3% and the “Observed efficacy (%) of L-glufosinate ammonium, (150 g a.i./ha)” value ([2]; 35 DAA) was 42%. For the same compound, the “Observed efficacy (%) of L-glufosinate ammonium, (150 g a.i./ha)” value (weedy Eleusine indica; 7 DAA) was 43.3%, the “Observed efficacy (%) of L-glufosinate ammonium, (150 g a.i./ha)” value (weedy Eleusine indica; 14 DAA) was 41.3% and the “Observed efficacy (%) of L-glufosinate ammonium, (150 g a.i./ha)” value (weedy Eleusine indica; 21 DAA) was 37.3%. The “Observed efficacy (%) of L-glufosinate ammonium, (150 g a.i./ha)” value (weedy Eleusine indica; 28 DAA) was 28.3%, the “Observed efficacy (%) of L-glufosinate ammonium, (150 g a.i./ha)” value (weedy Eleusine indica; 35 DAA) was 25.3% and the “Observed efficacy (%) of L-glufosinate ammonium, (150 g a.i./ha)” value (Spermacoce latifolia; 14 DAA) was 56.7%. The “Observed efficacy (%) of L-glufosinate ammonium, (150 g a.i./ha)” value (Spermacoce latifolia; 21 DAA) was 56.7%, the “Observed efficacy (%) of L-glufosinate ammonium, (150 g a.i./ha)” value (Spermacoce latifolia; 28 DAA) was 58.3% and the “Observed efficacy (%) of L-glufosinate ammonium, (150 g a.i./ha)” value (Spermacoce latifolia; 35 DAA) was 58.3%. For the same compound, the “Observed efficacy (%) of L-glufosinate ammonium, (150 g a.i./ha)” value (weedy Glycine max; 14 DAA) was 60%, the “Observed efficacy (%) of L-glufosinate ammonium, (150 g a.i./ha)” value (weedy Glycine max; 21 DAA) was 63.3% and the “Observed efficacy (%) of L-glufosinate ammonium, (150 g a.i./ha)” value (weedy Glycine max; 28 DAA) was 63.3%. For the same compound, the “Observed efficacy (%) of L-glufosinate ammonium, (150 g a.i./ha)” value (weedy Glycine max; 35 DAA) was 52.7%.
